Counter-ions that a name gives are not always drawn.

Assay [1] deals with T1, AII-induced contractions of isolated rabbit aorta (Oryctolagus cuniculus, UniProt P34976).
T1 construct: isolated rabbit aorta, maintained in a physiological salt solution; from tissue; host or cells: isolated rabbit aorta
T1 sequence (P34976 1-359): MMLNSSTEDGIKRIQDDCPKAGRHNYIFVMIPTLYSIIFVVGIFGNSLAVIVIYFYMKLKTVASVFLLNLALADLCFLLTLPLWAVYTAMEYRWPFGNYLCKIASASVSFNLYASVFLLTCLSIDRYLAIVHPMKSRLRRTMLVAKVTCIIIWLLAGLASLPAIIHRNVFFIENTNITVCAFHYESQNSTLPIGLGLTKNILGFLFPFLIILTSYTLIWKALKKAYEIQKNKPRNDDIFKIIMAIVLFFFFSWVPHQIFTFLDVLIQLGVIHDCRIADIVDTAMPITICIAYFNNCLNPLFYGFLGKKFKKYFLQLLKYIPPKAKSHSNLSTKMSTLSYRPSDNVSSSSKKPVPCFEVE
Briefly: Test B: in vitro antagonism of AII-induced contractions of isolated rabbit aorta. Type of assay: cell-based. Particulars: 37° C., read-out: average pA2 (converted). On the procedure: The antagonism of one or more of the physiological actions of AII and, in particular, the antagonism of the interaction of AII with the receptors which mediate its effects on a target tissue, may be assessed using one or more of the following, routine laboratory procedures: This in vitro test involves the measurement of the antagonistic effects of the test compound against […] contractions of isolated rabbit aorta, maintained in a physiological salt solution at 37° C. In order to ensure that the effect of the compound is specific to antagonism of AII, the effect of the test compound on noradrenaline-induced contractions may also be determined in the same preparation.

In assay [2] the test system is angiotensin II-induced pressor responses. Briefly: Test C: in vivo antagonism of angiotensin II-induced pressor responses in terminally-anaesthetised or conscious rats. The following applies: Rattus norvegicus, iv, i.v. administration. The text has this: The antagonism of one or more of the physiological actions of AII and, in particular, the antagonism of the interaction of AII with the receptors which mediate its effects on a target tissue, may be assessed using one or more of the following, routine laboratory procedures: This in vivo test involves using terminally-anaesthetised or conscious rats in which an arterial catheter has been implanted under anaesthesia for the measurement of changes in blood pressure. The AII antagonistic effects of the test compound following oral or parenteral administration, are assessed against angiotensin II-induced pressor responses. To ensure that the effect is specific, the effect of the test compound on vasopressin-induced pressor responses may also be determined in the same preparation.

Usually ED50 stands for the dose at which the effect has come halfway, by size or by number of responders. Read a high ED50 as a need for a large dose. Take `Cc1cc(OCc2ccc(-c3ccccc3-c3nnn[nH]3)cc2)c2ccccc2n1.Cl` [2-methyl-4-[(2'-(1H-tetrazol-5-yl)biphenyl-4-yl)methoxy]quinoline hydrochloride]: the Kb in assay [1] is 1.12 nM. The compound further registered an ED50 in assay [2] of 0.5 mg/kg.
`Cc1cc(OCc2ccc(-c3ccccc3-c3nnn[nH]3)cc2)c2c(n1)CCCC2` [2-methyl-5,6,7,8-tetrahydro-4-[(2'-(1H-tetrazol-5-yl)methoxy]quinoline hydrochloride] registered an ED50 in assay [2] of 0.28 mg/kg.

The values above are taken from patent US5245035A, “Heterocyclic boron compounds as intermediates for angiotensin II antagonists” (Imperial Chemical Industries PLC, priority 1991, dated 1993).
